Measurements taken from US11072581B2, “N-acyl-arylsulfonamide derivatives as aminoacyl-tRNA synthetase inhibitors” (Oxford Drug Design Limited, priority 2015, dated 2021).
Counter-ions that a name gives are not always drawn.

Columns and labels:
[1] = biological target: T1, EcoVRS (valyl-tRNA synthetase from Escherichia coli) (Escherichia coli, UniProt P07118); experiment: aaRS aminoacylation assay (ATP consumption), EcoVRS; type: biochemical; settings: i.a. = inactive at a concentration below 50 uM
T1 construct: made in house; host or cells: Escherichia coli M15
T1 sequence (P07118 whole entry): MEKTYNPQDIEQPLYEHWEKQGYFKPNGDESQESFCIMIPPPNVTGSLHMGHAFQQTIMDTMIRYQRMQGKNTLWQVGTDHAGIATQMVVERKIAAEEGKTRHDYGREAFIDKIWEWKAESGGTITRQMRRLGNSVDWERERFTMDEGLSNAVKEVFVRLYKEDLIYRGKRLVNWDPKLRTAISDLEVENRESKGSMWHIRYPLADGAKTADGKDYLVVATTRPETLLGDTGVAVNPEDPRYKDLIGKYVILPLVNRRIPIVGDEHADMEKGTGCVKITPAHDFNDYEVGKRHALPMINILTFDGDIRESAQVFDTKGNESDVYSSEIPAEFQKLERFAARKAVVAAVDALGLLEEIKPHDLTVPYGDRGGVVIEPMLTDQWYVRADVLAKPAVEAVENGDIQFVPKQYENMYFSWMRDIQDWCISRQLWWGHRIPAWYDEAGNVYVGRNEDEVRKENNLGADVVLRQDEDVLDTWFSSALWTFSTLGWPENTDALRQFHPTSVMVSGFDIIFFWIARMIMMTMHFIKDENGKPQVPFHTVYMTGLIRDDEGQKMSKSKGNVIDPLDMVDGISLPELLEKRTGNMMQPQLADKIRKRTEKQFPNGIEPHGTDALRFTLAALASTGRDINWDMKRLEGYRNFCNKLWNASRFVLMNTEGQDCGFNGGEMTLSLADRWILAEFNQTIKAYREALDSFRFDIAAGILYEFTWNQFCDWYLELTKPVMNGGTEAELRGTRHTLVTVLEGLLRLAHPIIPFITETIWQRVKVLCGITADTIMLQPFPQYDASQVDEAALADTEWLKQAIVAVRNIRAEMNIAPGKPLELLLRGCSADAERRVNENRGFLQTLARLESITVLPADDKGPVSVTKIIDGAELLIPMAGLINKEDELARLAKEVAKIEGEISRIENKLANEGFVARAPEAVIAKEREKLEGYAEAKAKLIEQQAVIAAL
Experimental: (§1) The compounds have been tested for antibacterial activity in vitro as aminoacyl-tRNA synthetases (aaRS) inhibitors following the following process.
(§2) Leucyl-, valyl- and isoleucyl-tRNA synthetases (LRS, VRS and IRS, respectively) from Escherichia coli (Eco) and Staphylococcus aureus (Sau).
(§3) Escherichia coli M15 cells transformed with plasmid pQE-60, or pQE-70, containing the open-reading frame sequence of one targeted aaRS were induced with 1 mM IPTG (Isopropyl β-D-1-thiogalactopyranoside) for 3 h at 37° C. Bacterial cells were harvested and lysed with 20 mM NaH2PO4 (pH 8.0), 200 mM NaCl, 10 mM imidazole and protease inhibitor cocktail (Roche). Pathogenic aaRS was purified by nickel affinity standard chromatography. Protein concentration was determined by spectrophotometry.
(§4) tRNA^Leu, tRNA^Val and tRNA^Ile from E. coli and S. aureus were transcribed in vitro for 4 h at 37° C. using T7 RNA polymerase. Transcription reaction contained 40 mM Tris-HCl (pH 8.0), 22 mM MgCl2, 1 mM spermidine, 5 mM DTT, 0.01% Triton X-100, 4 mM GTP, 4 mM ATP, 4 mM UTP, 4 mM CTP, 16 mM GMP, […] T7 RNA polymerase and 150 μg BstNI digested plasmid. Once finished, the reaction was applied on a 6% polyacrylamide-8 M urea denaturing gel to purify the transcribed tRNA and discard any impurities. Purified tRNA was quantified with Nanodrop 2000 (Thermo Scientific).
(§5) The aminoacylation reaction catalyzed by aminoacyl-tRNA synthetases (aaRS) takes place in two steps. In the first step, aaRS activates its cognate amino acid with ATP; and in the second step the activated amino acid is loaded to its corresponding tRNA. This reaction can be summarized as follows: ARS+aa+ATP=ARS-aa-AMP+PPi ARS-aa-AMP+tRNA=aa-tRNA+AMP+ARS [2] (ARS, Aminoacyl-tRNA synthetase; aa, amino acid; ARS-aa-AMP, enzyme-bound to aminoacyl-adenylate; aa-tRNA, aminoacyl-tRNA).
(§6) The activity of the pathogenic aaRSs was monitored by measuring the ATP consumption rate, since this consumption is directly proportional to the activity of the aaRS. If the tested compound, at a single point concentration of 50 μM, is inhibiting the aminoacylation reaction, there is a decrease in the ATP consumption, compared to the control reaction without compound, allowing the calculation of an inhibition ratio.
(§7) When the inhibition ratio for a given compound was above 80%, IC50 determination was performed with the same enzymatic assay (using the commercial kit Kinase RR from BioThema AB, Sweden) in the presence of serial dilutions of inhibitor. Known inhibitors of LRS, VRS or IRS were used as a positive control of the assay. The IC50 was calculated based on nonlinear regression analysis.

[2] = biological target: T2, SauVRS (valyl-tRNA synthetase from Staphylococcus aureus) (Staphylococcus aureus, UniProt Q2FXR8); experiment: aaRS aminoacylation assay (ATP consumption), SauVRS; type: biochemical; settings: i.a. = inactive at a concentration below 50 uM
T2 construct: made in house; host or cells: Escherichia coli M15
T2 sequence (Q2FXR8 1-876): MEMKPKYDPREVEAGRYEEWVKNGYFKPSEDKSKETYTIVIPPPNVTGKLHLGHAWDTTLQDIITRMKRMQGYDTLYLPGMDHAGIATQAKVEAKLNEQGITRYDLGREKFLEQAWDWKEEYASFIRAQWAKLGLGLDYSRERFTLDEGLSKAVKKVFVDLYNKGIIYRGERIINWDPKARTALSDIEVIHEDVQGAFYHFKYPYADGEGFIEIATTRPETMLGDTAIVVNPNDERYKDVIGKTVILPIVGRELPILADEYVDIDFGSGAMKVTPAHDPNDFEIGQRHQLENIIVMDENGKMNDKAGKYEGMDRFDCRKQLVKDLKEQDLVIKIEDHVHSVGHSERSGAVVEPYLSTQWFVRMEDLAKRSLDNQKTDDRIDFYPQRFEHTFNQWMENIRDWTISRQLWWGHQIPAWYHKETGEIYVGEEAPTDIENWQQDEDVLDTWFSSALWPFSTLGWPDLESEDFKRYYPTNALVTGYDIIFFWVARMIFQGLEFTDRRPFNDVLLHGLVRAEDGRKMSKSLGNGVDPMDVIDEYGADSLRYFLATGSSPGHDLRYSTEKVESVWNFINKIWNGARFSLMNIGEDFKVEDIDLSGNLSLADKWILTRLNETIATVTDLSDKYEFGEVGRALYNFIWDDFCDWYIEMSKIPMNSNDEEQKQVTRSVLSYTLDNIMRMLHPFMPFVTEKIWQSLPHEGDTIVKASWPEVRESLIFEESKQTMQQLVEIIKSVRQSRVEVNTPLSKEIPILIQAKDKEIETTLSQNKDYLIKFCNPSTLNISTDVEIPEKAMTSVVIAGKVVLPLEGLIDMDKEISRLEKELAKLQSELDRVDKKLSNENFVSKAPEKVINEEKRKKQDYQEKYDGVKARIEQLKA
Experimental: as §1, §2, §3, §4, §5, §6, §7

[3] = biological target: T3, SauLRS (leucyl-tRNA synthetase from Staphylococcus aureus) (Staphylococcus aureus, UniProt Q2FXH2); experiment: aaRS aminoacylation assay (ATP consumption), SauLRS; type: biochemical; settings: i.a. = inactive at a concentration below 50 uM; for IC50: read-out: IC50 SauLRS
T3 construct: made in house; host or cells: Escherichia coli M15
T3 sequence (Q2FXH2 1-805): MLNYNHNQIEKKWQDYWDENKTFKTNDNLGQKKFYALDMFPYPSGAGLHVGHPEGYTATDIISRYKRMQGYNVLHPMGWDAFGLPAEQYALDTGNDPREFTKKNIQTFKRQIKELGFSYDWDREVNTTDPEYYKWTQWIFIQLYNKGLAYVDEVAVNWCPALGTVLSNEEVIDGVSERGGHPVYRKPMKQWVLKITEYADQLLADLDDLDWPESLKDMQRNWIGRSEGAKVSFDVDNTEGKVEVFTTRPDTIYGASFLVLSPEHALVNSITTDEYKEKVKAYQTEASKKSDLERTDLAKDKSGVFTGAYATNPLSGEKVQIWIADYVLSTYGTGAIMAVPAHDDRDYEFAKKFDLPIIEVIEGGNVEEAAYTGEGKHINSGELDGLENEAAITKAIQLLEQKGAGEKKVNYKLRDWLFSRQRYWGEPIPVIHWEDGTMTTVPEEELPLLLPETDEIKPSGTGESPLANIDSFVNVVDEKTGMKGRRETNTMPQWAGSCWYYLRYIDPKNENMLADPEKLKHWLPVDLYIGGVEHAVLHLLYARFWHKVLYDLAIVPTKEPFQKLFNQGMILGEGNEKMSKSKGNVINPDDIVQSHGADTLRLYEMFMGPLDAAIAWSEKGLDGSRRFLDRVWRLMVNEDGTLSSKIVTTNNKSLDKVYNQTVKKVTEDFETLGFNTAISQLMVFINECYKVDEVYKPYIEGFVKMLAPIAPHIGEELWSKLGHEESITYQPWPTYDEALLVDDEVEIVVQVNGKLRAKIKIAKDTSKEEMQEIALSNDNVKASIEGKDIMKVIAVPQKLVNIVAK
Experimental: as §1, §2, §3, §4, §5, §6, §7

| SMILES | IC50 EcoVRS [1] | melting point | IC50 SauVRS [2] | IC50 SauLRS [3] | IC50 [3] [µM] |
| --- | --- | --- | --- | --- | --- |
| N[C@@H](CC1CC1)C(=O)NS(=O)(=O)c1cccc(-c2ccccc2)c1 (racemic) [Compound 5.10] | i.a | 214.4 °C | i.a | i.a |  |
| CC(C)C[C@H](N)C(=O)NS(=O)(=O)c1ccccc1 [Compound 5.1, (S)-2-amino-4-methyl-N-(phenylsulfonyl)pentanamide hydrochloride] | i.a. |  | i.a. |  | 5.4 |
| CC(C)C[C@H](N)C(=O)NS(=O)(=O)c1ccc(Oc2ccccc2)cc1 [Compound 5.2] | i.a | 224 to 225 °C | i.a |  | 16.3 |
| CC(C)C[C@H](N)C(=O)NS(=O)(=O)c1ccccc1-c1ccccc1 [Compound 5.3] | i.a | 143 °C (dec.) | i.a |  | 14.8 |
| CC(C)C[C@H](N)C(=O)NS(=O)(=O)c1cccc(Cl)c1 [Compound 5.4] | i.a |  | i.a |  | 0.92 |
| CC(C)C[C@H](N)C(=O)NS(=O)(=O)c1ccccc1Cl [Compound 5.5] | i.a |  | i.a |  | 13.2 |
| CC(C)C[C@H](N)C(=O)NS(=O)(=O)c1ccccc1F [Compound 5.6] | i.a |  | i.a |  | 17 |
| CCCCc1ccc(S(=O)(=O)NC(=O)[C@@H](N)CC(C)C)cc1 [Compound 5.7] | i.a |  | i.a |  | 4.9 |
| CC(C)C[C@H](N)C(=O)NS(=O)(=O)c1cccc(-c2ccccc2)c1 [Compound 5.9] | i.a | 149 °C (dec.) | i.a |  | 0.65 |
| CC(C)C[C@H](N)C(=O)NS(=O)(=O)c1ccc(-c2ccccc2)cc1 [Compound 5.11] | i.a | 212 °C (dec.) | i.a |  | 11.3 |
| CC(C)C[C@H](N)C(=O)NS(=O)(=O)c1c(C(C)C)cc(C(C)C)cc1C(C)C [Compound 5.12] | i.a | 217 °C | i.a | i.a |  |
| CC(C)C[C@H](N)C(=O)NS(=O)(=O)c1cccc2ccccc12 [Compound 5.13] | i.a |  | i.a |  | 16.1 |
| CC(C)C[C@H](N)C(=O)NS(=O)(=O)c1cccc2c(N(C)C)cccc12 [Compound 5.16, (S)-2-amino-N-((5-(dimethylamino)naphthalen-1-yl)sulfonyl)-4-methylpentanamide hydrochloride] | i.a |  | i.a | i.a |  |
| CC(C)C[C@H](N)C(=O)NS(=O)(=O)c1cccc2cccnc12 [Compound 5.19] | i.a |  | i.a |  | 16.8 |
| CC(C)C[C@H](N)C(=O)NS(=O)(=O)c1ccc(Br)c2ccncc12 [Compound 5.22, trifluoroacetate] | i.a |  | i.a |  | 11.5 |
| CC(C)C[C@H](N)C(=O)NS(=O)(=O)c1cccc2cc(C(N)=O)ncc12 [Compound 5.24, 8-(N-(L-Leucyl)sulfamoyl)isoquinoline-3-carboxamide] | i.a |  | i.a |  | 8.5 |
| CC(C)C[C@H](N)C(=O)NS(=O)(=O)c1cccc2c1CNCC2 [Compound 5.26, (S)-2-amino-4-methyl-N-((1,2,3,4-tetrahydroisoquinolin-8-yl)sulfonyl) pentanamide trifluoroacetate] | i.a |  | i.a |  | 20 |
| CNc1cc(-c2cccc(S(=O)(=O)NC(=O)[C@@H](N)CC(C)C)c2)nc(N)n1 [Compound 5.27] | i.a |  | i.a |  | 0.26 |
| CC(C)C[C@H](N)C(=O)NS(=O)(=O)c1cccc(-c2cc(N(C)C)nc(N)n2)c1 [Compound 5.28] | i.a |  | i.a |  | 4.8 |
| CSc1cc(-c2cccc(S(=O)(=O)NC(=O)[C@@H](N)CC(C)C)c2)nc(N)n1 [Compound 5.29] | i.a |  | i.a |  | 1.2 |
| Cc1cc(-c2cccc(S(=O)(=O)NC(=O)[C@@H](N)CC3CCC3)c2)nc(N)n1 [Compound 5.31] | i.a |  | i.a | i.a |  |
| Cc1cc(-c2cccc(S(=O)(=O)NC(=O)[C@@H](N)CC3CCCCC3)c2)nc(N)n1 [Compound 5.34] | i.a |  | i.a | i.a |  |
| CC(C)C[C@H](N)C(=O)NS(=O)(=O)c1cccc(-c2cc(N)ncn2)c1 [Compound 5.46] | i.a. |  | i.a. |  | 1.3 |
| CCc1cc(-c2cccc(S(=O)(=O)NC(=O)[C@@H](N)CC(C)C)c2)nc(N)n1 [Compound 5.47] | i.a. |  | i.a. |  | 2.15 |
| CC(C)C[C@H](N)C(=O)NS(=O)(=O)c1cccc(-c2ncnc(N)n2)c1 [Compound 5.48] | i.a. |  | i.a. |  | 0.53 |
